Test system: Human Peripheral Blood Mononuclear Cells (PBMC)
Experiment: T cell proliferation assay (PHA, 3H-thymidine)
Type: cell-based
Settings: 10 micrograms per ml, 3 days plus 12 hours 3H-thymidine

Secretin
% of PHA induced control: 100.5%

Reference: US20100204107A1, “USE OF URODILATIN AS A THERAPEUTIC AGENT” (priority 2007, published 2010)
